Legend:
[1] = tested on: p53; assay: Phosphorylation of p53 (p53S46P, p53S15P) in Env-elicited syncytia; type: cell-based; settings: 36 h coculture, SB203580, SB202190, SB202474 100 nM, LY294002 1 µM, PD98059 5 µM, anti-sense HIPK2 100 nM, Fig. 10
Procedure: Figures 10A and 10C. […] HeLa Env and HeLa CD4 cells were cocultured for 36h in the presence of the indicated agents followed by the determination of the frequency of p53S46P+ syncytia. Results are means of three independent experiments.
Figure 10B. […] Syncytia were generated as in figure 10A, after transfection with anti-sense HIPK2 phosphorothioate oligonucleotides (100 nM) or a scrambled control olignonucleotide (Co.), followed by immunofluorescence detection of p53S46P.
(§1) Transfection with pcDNA3.1 vector only, or p38 DN plasmids (gift by Roger Davis), or HPLC-purified anti-sense HIPK2 phosphorothioate oligonucleotides (100 nM) and control were transfected with Lipofectamine (Invitrogen) into HeLa CD4 cells, 24 h before co-culture with HeLa Env cells. Transfection with pcDNA3.1 vector only or a p53-responsive enhanced green fluorescent (GFP) plasmid (kind gift from Klas Wiman) was performed 24 hours before coculture of HeLa CD4 and HeLa Env cells. The frequency of GFP-expressing cells was assessed by cytofluorometry, on a FACS Vantage (Becton Dickinson) equipped with a 100 µm nozzle, allowing for the analysis of relatively large cells.

[2] = tested on: Env-elicited syncytia; type: cell-based
Procedure: (§2) HeLa/U937 cell co-cultures were performed at different ratios (6). U937 or Jurkat cells were cultured with recombinant gp120 protein (500 ng/ml).

[3] = tested on: p53; type: cell-based; settings: syncytia, 24 hours; SN50 20 µM, roscovitin 1 µM; Fig. 3B
Procedure: The frequency of GFP-expressing cells was assessed by cytofluorometry, on a FACS Vantage (Becton Dickinson) equipped with a 100 µm nozzle, allowing for the analysis of relatively large cells.
as §1

[4] = tested on: Env-elicited syncytia; assay: Karyogamy and cyclin B accumulation in Env-elicited syncytia; type: cell-based; settings: SN50 20 µM, roscovitin 1 µM; Fig. 3D
Procedure: Figure 3D. […] Syncytia were treated with various drugs as in B, and the frequency of karyogamic cells was scored.
as §2

[5] = tested on: Env-induced syncytia; settings: reference (5); cited from earlier work

SMILES: COc1cccc(-c2cc(=O)c3ccccc3o2)c1N [PD98059]
- frequency of p53S46P+ syncytia (p53S46P) ([1]; 500 mM caffeine): failed to affect

SMILES: Oc1ccc(-c2nc(-c3ccc(F)cc3)c(-c3ccncc3)[nH]2)cc1 [SB202190]
- frequency of p53S46P+ syncytia (p53S46P) ([1]; 500 mM caffeine): strongly reduced

SMILES: CCc1nc(-c2ccc(OC)cc2)[nH]c1-c1ccncc1 [SB202474]
- frequency of p53S46P+ syncytia (p53S46P) ([1]; 500 mM caffeine): not

SMILES: Cn1c(=O)c2c(ncn2C)n(C)c1=O [caffeine]
- propensity of syncytia to undergo apoptosis [2]: did not reduce
- frequency of p53S46P+ syncytia (p53S46P) ([1]; caffeine): no effect

SMILES: CC[C@H](CO)Nc1nc(NCc2ccccc2)c2ncn(C(C)C)c2n1 [roscovitine]
- p53-dependent transcription (p53-inducible GFP construct) [3]: inhibited
- emergence of karyogamic syncytia (karyogamy) [4]: inhibiting
- syncytium-dependent cell death [5]: blocked

— EP1542016A1, “PUMA, phosphorylated p53 and p38 map kinase as markers for HIV-1-induced apoptosis in circulating T cells of infected patient” (Institut Gustave Roussy, priority 2003, dated 2005)
